In US5648474A, “Crystalline etoposide 4'-phosphate diethanolate” (Bristol-Myers Squibb, priority 1991, dated 1997):
“And” between values parts separate entries of the source, which are not always exact repeats. Equal entries are not always repeated.

What was measured:
[1] = cited from earlier work
[2] = Stability at 50° C., potency by HPLC (% EP remaining); assay type: physicochemical; details: for % EP remaining, 2 wk / % EP remaining, 4 wk / % EP remaining, 8 wk: sealed glass vials, control: desiccated at 4° C. (100% assumed potency); for % EP remaining, 2 wk: 20160 min; for % EP remaining, 4 wk: 40320 min; for % EP remaining, 8 wk: 80640 min
Protocol: a. Crystalline etoposide 4'-phosphate diethanolate prepared as described above. b. Crystalline etoposide 4'-phosphate (unsolvated) was prepared by the following procedure. Etoposide 4'-phosphate (300 mg) in ethanol (175 ml) was heated with stirring at 70° C. to obtain a clear solution. The solution was filtered and the filtrate heated at 70° C. until the volume was reduced to ca. 34 ml. A portion of the solution (ca. 17 ml) was placed in a vial, and seeded with a small amount of needle-shaped etoposide 4'-phosphate crystals previously obtained. The solution was placed in freezer at -12° C. for 4 days and the resulting needle-shaped crystals were harvested as white fluffy material. NMR analysis of this material indicated ethanol content of ca. 1.6% w/w. […]
c. amorphous disodium etoposide 4'-phosphate prepared as described in U.S. Pat. No. 4,904,768. d. amorphous etoposide 4'-phosphate was obtained by dissolving crystalline etoposide 4'-phosphate diethanolate (125 mg) in methanol (50 ml), evaporating the solution to dryness on a rotary evaporator, and drying the residue at 25° C. under vacuum for 1 hour.
Accurately weighed samples of the test materials were placed in Type I flint glass vials and sealed with Teflon-coated stoppers and aluminum caps. The vials were stored at 50° C. The potency of these samples was determined at 2,4 and 8 weeks by HPLC. Samples stored desiccated at 4° C. served as controls (100% assumed potency).
Column: Jones Apex Octadecyl, 5μ, 150×4.6 mm
Mobile phase A: 0.02M ammonium phosphate (mono-basic) in Milli-Q water (pH ~4.5): Acetonitrile (85:15) Mobile phase B: Acetonitrile
Gradient: 0-3 minutes isocratic at 0% B; 3-18 mins--linear gradient 0 to 30% B; 18-23 mins--isocratic at 30% B; 23-25 mins--linear gradient 30 to 0% B; 25-30 mins--re-equilibrate at 100% A (i.e. 0% B) […]
Sample diluent: Mobile phase A
Inj. volume: 20 microliters
Retention times: Etoposide 4'-phosphate--5.4 mins; lignan P--11.5 mins; etoposide--17.5 mins Peak area for etoposide 4'-phosphate was linearly correlated with concentration in the range 0.05-0.20 mg/mL (correlation coefficient=0.9999).
The results of the above-described stability test are given in the following Table in which the term "EP" represents etoposide 4'-phosphate.

[3] = relative to etoposide; cited from earlier work
[4] = previously disclosed fluffy, amorphous forms; cited from earlier work

Structure (SMILES)	water solubility [1]	% EP remaining, 2 wk [2]	% EP remaining, 4 wk [2]	% EP remaining, 8 wk [2]	stability versus other forms of etoposide 4'-phosphate [2]	loss of potency over a 8-week period ([2]; 8-week period)	activity in in vivo antitumor assays [3]	decomposition upon storage [4]
COc1cc([C@@H]2c3cc4c(cc3[C@@H](O[C@@H]3O[C@@H]5CO[C@@H](C)O[C@H]5[C@H](O)[C@H]3O)[C@H]3COC(=O)[C@H]23)OCO4)cc(OC)c1OP(=O)(O)O [Amorphous EP 2Na, disodium etoposide 4'-phosphate]	≥ 100 mg/mL	85.5%	69.3%	61.6%	–	–	–	–
COc1cc([C@@H]2c3cc4c(cc3[C@@H](O[C@@H]3O[C@@H]5CO[C@@H](C)O[C@H]5[C@H](O)[C@H]3O)[C@H]3COC(=O)[C@H]23)OCO4)cc(OC)c1OP(=O)(O)O [Amorphous EP, etoposide 4'-phosphate]	–	65.8%	54.1%	46.7%	–	–	–	–
COc1cc([C@@H]2c3cc4c(cc3[C@@H](O[C@@H]3O[C@@H]5CO[C@@H](C)O[C@H]5[C@H](O)[C@H]3O)[C@H]3COC(=O)[C@H]23)OCO4)cc(OC)c1OP(=O)(O)O [Crystalline EP 2EtOH, etoposide 4'-phosphate diethanolate]	–	100%	98.4% and 100%	97.5% and 99.3%	superior stability	very little loss of potency	–	–
COc1cc([C@@H]2c3cc4c(cc3[C@@H](O[C@@H]3O[C@@H]5CO[C@@H](C)O[C@H]5[C@H](O)[C@H]3O)[C@H]3COC(=O)[C@H]23)OCO4)cc(OC)c1OP(=O)(O)O [Crystalline EP, etoposide 4'-phosphate]	–	93.3%	87.9%	85.1%	–	–	–	–
COc1cc([C@@H]2c3cc4c(cc3[C@@H](O[C@@H]3O[C@@H]5CO[C@@H](C)O[C@H]5[C@H](O)[C@H]3O)[C@H]3COC(=O)[C@H]23)OCO4)cc(OC)c1OP(=O)(O)O [Etoposide 4'-phosphate (I), Etoposide 4'-phosphate]	≥ 100 mg/mL	–	–	–	–	–	as active as etoposide	tend to decompose upon storage
COc1cc([C@@H]2c3cc4c(cc3[C@@H](O[C@@H]3O[C@@H]5CO[C@@H](C)O[C@H]5[C@H](O)[C@H]3O)[C@H]3COC(=O)[C@H]23)OCO4)cc(OC)c1O [Etoposide]	about 0.1 mg/ml	–	–	–	–	–	–	–
